Data set [1] can be described thus: Terminal half-life. Particulars: in vivo.
Data set [2] is described as follows: Triglycerides levels on daily estrogen use. It is filed as in vivo, human. Particulars: even at higher dosages. From the text: Besides, the daily use of currently marketed estrogens (ethinylestradiol (EE), E2, E2V, conjugated equine estrogens) is associated with a dose-proportional increase in triglycerides levels. In the human body, high levels of triglycerides in the bloodstream have been linked to atherosclerosis and, by extension, the risk of heart disease and stroke.

For data set [3], the system named is healthy female subjects. Nature of the data set: Example 1 clinical study, one 28-day cycle: dysmenorrhea as treatment-emergent adverse event. It counts as in vivo, human. The protocol: During that study, healthy female subjects were treated for one 28-day cycle with either 10 or 20 mg E4 alone (n=10 and 11, respectively) or with a combination of E4 with either Progesterone (P) or Desogestrel (DSG) (n=15 or 16, respectively).
At baseline, occasional dysmenorrhea was reported by 11 subjects (21.2%), and frequent dysmenorrhea was reported by 19 subjects (36.5%). Overall, dysmenorrhea was reported by 25% to 53.3% of the subjects included in this trial.
As shown in Table 3 of Treatment-emergent adverse events (TE-AE) below, reporting of dysmenorrhea during the treatment phase was low in comparison to the incidence recorded at baseline.

The mark [4] stands for this setting: 10 mg E4, n = 10, one 28-day cycle.
The mark [5] stands for this setting: 20 mg E4 alone (n = 11), with DSG (n = 15) or with P4 (n = 16), one 28-day cycle.

Take `C[C@]12CC[C@@H]3c4ccc(O)cc4CC[C@H]3[C@@H]1[C@@H](O)[C@@H](O)[C@@H]2O` [E4, estetrol]: in data set [1], the terminal half-life is 31.7 h. Further, in data set [2], the triglycerides levels entry is listed as “minimally increases triglycerides levels”. In data set [3] (setting [4]), the “Dysmenorrhea TE-AE, % of subjects” value came to 10.0% and the “Dysmenorrhea TE-AE, number of subjects” value is 1. In addition, in data set [3] (setting [5]), the “Dysmenorrhea TE-AE, % of subjects” value is on record as 9.1% and the “Dysmenorrhea TE-AE, number of subjects” value worked out at 1.

(Values after US11896602B2, “Method for preventing pregnancy” (ESTETRA SRL, priority 2016, dated 2024).)
